Measured values reported in patent publication EP4467137A1, “TREATMENT OF FRONTOTEMPORAL DEMENTIA OR FRONTOTEMPORAL LOBAR DEMENTIA” (Universidad Autónoma de Madrid, priority 2023, dated 2024).

Key:
[1] = Cell viability/toxicity by the MTT method; format: cell-based; details: human, effect of the compound per se on AREc332 cells
Text: Based on the results obtained (Table 2), Compound 1 was selected for further in vitro and in vivo studies as it was endowed with the best anti-neuroinflammatory activity. Table 2: Comparative in vitro results. Cell viability/toxicity: effect of the compound per se on cell viability of […] cells measured with the MTT method. Anti-neuroinflammatory effect: % Reduction of nitrites in primary rat glial cultures. PAMPA-BBB: In vitro blood-brain barrier permeation assay, permeation rate Pe (10-6 cm.s-1). NRF2, CD (µM): Concentration of compound that doubles de activation of NRF2. ORAC: Oxygen radical absorbance capacity. LOX-5: lipoxygenase-5.

hyperphosphorylated tau = assay: In vivo hTauP301L model: hippocampal hyperphosphorylated tau by AT8 and AT180 immunofluorescence; design: species or system mouse; details: 35 days
Procedure: In vivo hTau301L model was induced by stereotaxic injection of AAV-hTauP301L (AAV-hTau) particles as described in [Luengo, Enrique et al. "Implication of type 4 NADPH oxidase (NOX4) in tauopathy." Redox biology vol. 49 (2022): 102210. doi:10.1016/j.redox.2021.102210 ]. Control animals were injected with AAV-GFP. Evaluation of hyperphosphorylated tau in sarkosyl soluble and insoluble fractions; microgliosis; AT8 and AT180 by immunofluorescence; and cognitive test were performed as described previously [Luengo, Enrique et al. "Implication of type 4 NADPH oxidase (NOX4) in tauopathy." Redox biology vol. 49 (2022): 102210. doi:10.1016/j.redox.2021.102210 ].
Oral administration of Compound 1 at different dosages (20 mg·kg^-1 and 50 mg·kg^-1) was administered embedded in gelatine. The compound was given in a mixture of 10 % gelatine from porcine skin and 10 % sucralose in water, heated in a microwave oven. Before Compound 1 addition, gelatine mixture was left at RT. Afterwards, the compound was added, evenly mixed and plated 1 mL·well^-1 in a P24 plate. Before AAV injection, mice were trained to eat the gelatines by giving them one gelatine (without compound) per day for 4 consecutive days. After AAV injection, mice were treated once a day with control or Compound 1 gelatines for 35 consecutive days. This approach was followed in adult (3-4 months old) and aged (16-18 months old) mice injected with AAV-GFP or AAV-hTauP301L.
Example 2.5. Compound 1 ameliorates hTauP301L induced FTD and cognitive decline in adult (3-4 months old) mice. FTD was generated in adult male and female C57BL/6J mice (3-4 months old) by bihippocampal injection of AAV-hTau particles containing the P301L mutation. Mice were treated orally once a day with a single dose of 20 or 50 mg/kg of Compound 1 formulated in gelatines the day after stereotaxic delivery of AAVs (GFP or TauP301L, to controls and FTD, respectively). After 35 days treatment, hyperphosphorylated tau levels were evaluated by immunofluorescence and by WB in soluble and insoluble in sarkosyl fractions. Also, behavioural tests were conducted to study the cognition status of the mice.
Hyperphosphorylated tau levels measured with the antibodies AT8 (p-Ser202/p-Thr205) and AT180 (p-Thr231) were analysed by immunofluorescence in fixed postmortem brain slices of treated mice (Figure 7A).
Example 2.6. Compound 1 ameliorates hTauP301L induced FTD and cognitive decline in aged (16-18 months old) mouse. To include the aging effect in the FTD model, the previous experiments were replicated in male and female 16-18 months old C57/BL6J mice.

[2] = adult (3-4 months old) mice, 50 mg/kg/day oral
[3] = aged (16-18 months old) mice, 50 mg/kg oral

SMILES: COc1ccc2c(c1)CC(c1c[nH]c3ccc(OC)cc13)N2 (centres unmarked) [Compound 1, 5-Methoxy-3-(5-methoxyindolin-2-yl)-1H-indole]
- CC50 [1]: > 30 µM
- AT8 fluorescence in hippocampus (DG, CA1 and CA3) (hyperphosphorylated tau; [2]): significantly reduced
- AT180 fluorescence in hippocampus (DG, CA1 and CA3) (hyperphosphorylated tau; [2]): significantly reduced
- hyperphosphorylated tau levels by AT8 in DG, CA3 and CA1 (hyperphosphorylated tau; [3]): reduced
- hyperphosphorylated tau levels by AT180 in DG, CA3 and CA1 (hyperphosphorylated tau; [3]): reduced
